# Measurements: ChEMBL document CHEMBL1201862, “PubChem BioAssay data set” (2004)
#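 How tested: cells in 96-well plates exposed to compound for 48 hours at five concentrations. GI50: concentration for 50% inhibition of growth.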 Activity calls are given as the source filed them. No stated cut-off is given here; in the data, active = GI50 up to about 1.1 µM and inactive = higher.
# Assays:
# Assay in all cases: growth of human tumour cells (NCI), 48 h
# T47D = system: T47D
# LXFL 529 = system: LXFL 529
# M19-MEL = system: M19-MEL
# SNB-78 = system: SNB-78
# KM-20L2 = system: KM-20L2
# BT-549 = system: BT-549
# 786-0 = system: 786-0
# RXF 631 = system: RXF 631
# MDA-N = system: MDA-N
SMILES,GI50 (M19-MEL),GI50 (SNB-78),GI50 (KM-20L2),further results
CC(=O)OC(OC(C)=O)n1cc(C=O)c2ccccc21,,,,GI50 (T47D): > 100 µM (inactive)
CC1(C)OP23(NC(=O)OC2(C(F)(F)F)c2ccccc2O3)OC1(C)C (configuration not stated),> 100 µM (inactive),> 100 µM (inactive),,GI50 (LXFL 529): > 100 µM (inactive)
C[N+](C)([O-])CCOc1cc2c(c3ccccc13)-c1ccccc1C2=O,15.1 µM (inactive),19.8 µM (inactive),20.1 µM (inactive),
CC(=O)C1CC[C@@H]2[C@H](CC[C@]3(C)[C@@H](O)CC[C@@H]23)[C@H]1C(=O)O (some centres not stated),,,,GI50 (BT-549): > 100 µM (inactive)
CN(C)CCCn1c(-c2cc(C(C)(C)C)c(O)c(C(C)(C)C)c2)cs/c1=N\c1ccccc1,,,,GI50 (BT-549): 3.13 µM (inactive)
CN(C)C(=S)/N=c1\ssc(=S)n1C,> 100 µM (inactive),> 100 µM (inactive),> 100 µM (inactive),GI50 (786-0): > 100 µM (inactive); GI50 (LXFL 529): > 100 µM (inactive); GI50 (RXF 631): > 100 µM (inactive)
O=[N+]([O-])c1ccc2[nH]c3c(-c4ccccc4)nccc3c2c1,25.9 µM (inactive),31 µM (inactive),27.6 µM (inactive),
CN(/N=C1\C(=O)Nc2ccccc21)c1ccccc1,,,,GI50 (MDA-N): 40.6 µM (inactive); GI50 (T47D): 34.7 µM (inactive)
C[Si](C)(C)/C=C/CN1C(=O)CCC1=O,> 100 µM (inactive),> 100 µM (inactive),> 100 µM (inactive),GI50 (LXFL 529): > 100 µM (inactive)
COc1cc(C2C(C(=O)O)=C(CO)Oc3cc4c(cc32)OCO4)cc(OC)c1O (configuration not stated),,> 100 µM (inactive),> 100 µM (inactive),
COC(=O)c1cn(CC(O)CCl)nn1 (configuration not stated),,,,GI50 (BT-549): > 100 µM (inactive); GI50 (MDA-N): > 100 µM (inactive); GI50 (T47D): > 100 µM (inactive)
CC(=O)OCC1OC(n2c3c(c(-c4ccco4)c(C#N)c2=S)CCC3)C(OC(C)=O)C(OC(C)=O)C1OC(C)=O (configuration not stated),,,,GI50 (786-0): 49.7 µM (inactive); GI50 (BT-549): 43.9 µM (inactive); GI50 (MDA-N): > 100 µM (inactive)
COc1c(Br)cc(CC(N)=O)c(O)c1Br,> 100 µM (inactive),> 100 µM (inactive),> 100 µM (inactive),GI50 (RXF 631): > 100 µM (inactive)
COc1nc(SC)nc2c1cnn2C1OC(C(O)CO)C(OC)C1O (configuration not stated),> 75.5 µM (inactive),> 85.9 µM (inactive),> 85.9 µM (inactive),
O=C(O)C12CCCCC1CCCC2 (configuration not stated),> 100 µM (inactive),,> 100 µM (inactive),GI50 (LXFL 529): > 100 µM (inactive)
Cc1cc(C)n(C(=C(C(Cl)=C(Cl)Cl)[N+](=O)[O-])n2nc(C)cc2C)n1,,,,GI50 (BT-549): 4.56 µM (inactive); GI50 (MDA-N): 4.06 µM (inactive); GI50 (T47D): 4.05 µM (inactive)
ClCC1(CCl)COC1,,,,GI50 (MDA-N): > 100 µM (inactive); GI50 (T47D): > 100 µM (inactive)
